Experimental data as given in PMC3684613 (PLoS ONE, 2013).
Like-named read-outs stand apart in the source and are kept apart here.

Experiments:
[1] = tested on: P. falciparum 3D7; design: method as in ChEMBL-NTD; settings: ref ChEMBL-NTD, cited from earlier work
[2] = tested on: P. falciparum 3D7; experiment: DAPI stain fluorescent high content imaging assay, P. falciparum 3D7 (confirmatory screen, Avery); settings: Plasmodium falciparum; for EC50: 3D7, read-out: EC50_nM; for inhibition of growth at 5 µM: 3D7, read-out: percent_inh @ 5 uM; for inhibition of growth at 2 µM: 3D7, read-out: percent_inh @ 2 uM
[3] = values follow the order of the source (GNF; GSK; StJude)
[4] = original screening data, source (GSK, GNF, StJude), several values separated by ';' in order of sources

SMILES	EC50 [2] [nM]	inhibition of growth at 5 µM [2] [%]	further results
Cc1nc2ccccc2c(O)c1CC=C(Cl)Cl [MMV665994]	836	89	EC50 ([1]; source GNF (GNF-Pf ids)): 498 nM
CCCCCCn1c(=N)n(CC(O)COc2cccc(C)c2)c2ccccc21 (stereo not shown) [MMV000445]	1140	98	EC50 ([1]; source StJude (SJ ids)): 1970 nM
COc1ccc2sc(N(Cc3cccnc3)C(=O)c3ccc(C#N)cc3)nc2c1 [MMV001239]	–	–	EC50 [1, 3]: 15000 nM; inhibition of growth at 2 µM [2]: 89%
COc1ccc(Nc2nc(NN=Cc3ccc(O)cc3)nc(Nc3ccc([N+](=O)[O-])cc3)n2)cc1 [MMV666689]	532	98	EC50 ([1]; source GSK): 1120 nM
O=C(CSc1ccc2nnc(-c3cccc(F)c3)n2n1)Nc1ccc2c(c1)OCO2 [MMV665918]	–	92	EC50 ([1]; source GNF): 2110 nM
COc1cc(C(=O)Nc2ccc(-c3nc4ccccc4[nH]3)cc2)cc(OC)c1OC [MMV665898]	1220	95	EC50 [1, 3]: 982 nM
COc1ccc(C(=O)Nc2ccc(Cl)cc2C(=O)Nc2ccncc2)cc1 [MMV665799]	–	93	EC50 ([1]; source GSK): 822 nM
CCOc1ccc2nc(C)cc(Nc3ccc(N(C)C)cc3)c2c1 [MMV007020]	4000	–	EC50 [1, 3]: 344 nM; inhibition of growth at 2 µM [2]: 94%
Cc1ccc(CN2CCC(C(=O)Nc3ccc(-c4cc5ccccc5[nH]4)cc3)CC2)o1 [MMV666071]	–	77	EC50 ([1]; source GSK): 1420 nM
CC(=O)NCCc1nc2ccccc2n1Cc1ccc(C(C)C)cc1 [MMV007617]	1790	97	EC50 ([1]; source GNF): 764 nM
CC1=C(CC(=O)c2cccc([N+](=O)[O-])c2)C(=O)c2ccccc2C1=O [MMV666125]	381	95	EC50 ([1]; source GNF (GNF-Pf ids)): 2840 nM
CC1CC(C)CN(C(=O)c2ccc(Cl)cc2Cl)C1 (stereo not shown) [MMV001344]	756	95	EC50 [1, 4]: 1320 nM
Cc1ccc(C)c(-c2csc(Nc3ccc(C)c(C)c3)n2)c1 [MMV007654]	–	94	EC50 [1, 3]: 493 nM
COCCNC(=O)c1ccc(OC2CCN(Cc3ccc(F)c(F)c3)CC2)c(Cl)c1 [MMV666072]	–	91	EC50 ([1]; source GSK): 1490 nM
Cc1[nH]c(-c2ccc(F)cc2)cc1C(=O)NC1CCN(Cc2ccccc2)CC1 [MMV019738]	771	99	EC50 ([1]; source GSK): 1130 nM
Cc1ccc(OCCCCCCNCCO)c(C)c1 [MMV666020]	–	49	EC50 ([1]; source GNF (GNF-Pf ids)): 1970 nM
CCCC(c1nnnn1C1CCCCC1)N1CCN(C(=O)c2ccco2)CC1 (stereo not shown) [MMV666093]	–	82	EC50 ([1]; source GNF): 1330 nM
COc1ccc(-c2cc3c(nn2)-c2ccccc2C3=O)cc1 [MMV666026]	–	97	EC50 ([1]; source GNF (GNF-Pf ids)): 3840 nM
CN(C)c1ccc(-c2nc3cc(N)ccc3[nH]2)cc1 [MMV666102]	–	64	EC50 ([1]; source GSK): 239 nM
Oc1ccccc1CNCC12CC3CC(CC(C3)C1)C2 [MMV020788]	22.6	96	EC50 ([1]; source GSK (TCMDC id)): 279 nM
CN(C)CCNc1cc(-c2ccccc2)nc2ccccc12 [MMV006704]	4000	–	EC50 [1, 4]: 692 nM; inhibition of growth at 2 µM [2]: 92%

Continued by falling EC50 [2], values first:

EC50 [2] [nM]	SMILES	inhibition of growth at 5 µM [2] [%]	further results
1330	Cc1ccc(C)c(Cn2c(N3CCC(C(=O)NCc4cccs4)CC3)nc3ccccc32)c1 [MMV019741]	97	EC50 ([1]; source GSK (TCMDC ids)): 938 nM
1330	Cc1ccc(Cl)cc1N1CCN(CCCNC(=O)C2CCN(c3nc4ccccc4[nH]3)CC2)CC1 [MMV019746]	97	EC50 ([1]; source GSK): 895 nM
1310	Cc1ccc2cc3c(N)c4c(C)ccc(C)c4nc3nc2c1 [MMV666079]	98	EC50 ([1]; source GNF (GNF-Pf ids)): 431 nM
1140	O=C(Cc1ccccc1)NC(c1ccc(Cl)cc1)c1c(O)ccc2ccccc12 (stereo not shown) [MMV665972]	97	EC50 [1, 3]: 15000 nM
1030	CC(Oc1ccc(NC(=O)c2cccs2)cc1)C(=O)c1ccc(Cl)cc1 (stereo not shown) [MMV665886]	87	EC50 [1, 3]: 774 nM
1020	Cc1ccnc(NC(c2cccc(OCc3ccccc3)c2)c2ccc3cccnc3c2O)c1 (stereo not shown) [MMV000720]	97	EC50 ([1]; source GSK (TCMDC ids)): 864 nM; EC50 ([1]; source StJude (SJ ids)): 1810 nM
944	Clc1ccc2c(N3CCCC3)ccnc2c1 [MMV007363]	97	EC50 [1, 4]: 283 nM
893	N=c1n(CCN2CCCCC2)c2ccccc2n1CC(O)c1cccc(Br)c1 (stereo not shown) [MMV665902]	98	EC50 ([1]; source GSK): 1140 nM
846	O=c1cc(NC2CCN(CCCc3ccccc3)CC2)c2cc(Cl)ccc2o1 [MMV665786]	97	EC50 ([1]; source GNF (GNF-Pf ids)): 408 nM
845	COc1ccc(C2Sc3ccccc3N=C3C2=C(O)c2ccccc23)cc1 (stereo not shown) [MMV000563]	96	EC50 ([1]; source GNF): 238 nM
800	Clc1cc(Br)ccc1-c1ccc(CNCC2CCNCC2)o1 [MMV019918]	96	EC50 [1, 4]: 1510 nM
769	Cc1c(C)n(CC(O)CNC2CCCCC2C)c2ccccc12 (stereo not shown) [MMV665806]	96	EC50 [1, 4]: 527 nM
683	CCOc1cc2c(cc1OCC)C(c1cc(C)c(O)c(C)c1)NCC2 (stereo not shown) [MMV000483]	97	EC50 [1, 4]: 1830 nM
660	OC(CNC1CCCC1)Cn1c2ccccc2c2ccccc21 (stereo not shown) [MMV000848]	97	EC50 [1, 4]: 1080 nM
584	CCCCOC(=O)c1ccc(Nc2cc(C)nc3ccc(OC)cc23)cc1 [MMV665797]	99	EC50 ([1]; source GSK (TCMDC ids)): 640 nM
567	OC1=C2C(=Nc3ccccc3SC2c2ccc(Br)cc2)c2ccccc21 (stereo not shown) [MMV007127]	97	EC50 ([1]; source GNF (GNF-Pf ids)): 337 nM
538	CCCCc1ccc(NS(=O)(=O)c2cc3c4c(c2)CCN4C(=O)CC3)cc1 [MMV001255]	96	EC50 ([1]; source StJude): 15000 nM
396	Cc1ccc(-c2cc3nc4c(c(O)n3n2)CCCC4)cc1 [MMV006937]	73	EC50 ([1]; source GNF (GNF-Pf id)): 1600 nM
370	CCOc1cc2c(cc1OCC)C(c1cc(OC)c(O)cc1Cl)NCC2 (stereo not shown) [MMV008956]	98	EC50 ([1]; source GNF (GNF-Pf id)): 362 nM; EC50 ([1]; source GSK (TCMDC id)): 748 nM
255	CN(C)c1ccc(C(O)(c2ccc(N(C)C)cc2)c2ccc(N(C)C)cc2)cc1 [MMV665941]	96	EC50 ([1]; source StJude (SJ id)): 620 nM
242	Cc1cc(Nc2ccc3ccccc3c2)n2ncnc2n1 [MMV011099]	–	EC50 ([1]; source GSK (TCMDC id)): 173 nM
205	CCOC(=O)c1c(NC(=O)c2ccccc2)sc2c(O)c(CN(CC)CC)ccc12 [MMV665831]	96	EC50 ([1]; source GNF (GNF-Pf id)): 267 nM; EC50 ([1]; source GSK (TCMDC id)): 969 nM
135	CSC1=NC(=Nc2c(C)cccc2C)C2(CCC(C(C)(C)C)CC2)N1c1ccc(Cl)cc1 (stereo not shown) [MMV666596]	96	EC50 ([1]; source GNF (GNF-Pf id)): 1480 nM
117	CCOc1ccc(-c2nonc2NC(=O)c2cccc(C)c2)cc1OCC [MMV665805]	86	EC50 ([1]; source StJude): 61.9 nM
51.5	CN(C)c1ccc(C=Cc2nc(=O)c3ccccc3o2)cc1 [MMV006309]	96	EC50 ([1]; source GSK (TCMDC id)): 44.6 nM
